In ChEMBL document CHEMBL1201862, “PubChem BioAssay data set” (2004):
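These data come from cells grown in 96-well plates and exposed to compound for 48 hours at five concentrations. At the GI50, growth is halved.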 Active and inactive are the calls of the source. Rule as the data show it: active = GI50 up to about 1.1 µM and inactive = higher.

Tests used:
Assay in all cases: DTP human tumour cell line panel, 48 h
A549 = tested on: A549
CCRF-CEM = tested on: CCRF-CEM
EKVX = tested on: EKVX
HCC 2998 = tested on: HCC 2998
HCT-15 = tested on: HCT-15
HOP-62 = tested on: HOP-62
HT-29 = tested on: HT-29
MDA-MB-435 = tested on: MDA-MB-435
Malme-3M = tested on: Malme-3M
NCI-H23 = tested on: NCI-H23
NCI-H460 = tested on: NCI-H460
NCI-H522 = tested on: NCI-H522
OVCAR-3 = tested on: OVCAR-3
RPMI-8226 = tested on: RPMI-8226
SF-539 = tested on: SF-539
SN12C = tested on: SN12C
SNB-19 = tested on: SNB-19
SNB-75 = tested on: SNB-75
T47D = tested on: T47D
UACC-257 = tested on: UACC-257

Structure (SMILES) | GI50 (A549) | GI50 (CCRF-CEM) | GI50 (EKVX) | GI50 (HCC 2998) | GI50 (HCT-15) [µM] | GI50 (HOP-62) | GI50 (HT-29) | GI50 (MDA-MB-435) | GI50 (Malme-3M) | GI50 (NCI-H23) | GI50 (NCI-H460) | GI50 (NCI-H522) | GI50 (OVCAR-3) | GI50 (RPMI-8226) | GI50 (SF-539) | GI50 (SN12C) | GI50 (SNB-19) | GI50 (SNB-75) | GI50 (T47D) | GI50 (UACC-257)
O=C1Oc2ccccc2C(=O)/C1=C\Nc1nc(-c2ccc(O)c(O)c2)cs1 | 6.67 µM (inactive) | 1.23 µM (inactive) | 12.7 µM (inactive) | 7.14 µM (inactive) | 3.39 | 7.18 µM (inactive) | 4.63 µM (inactive) | 4.88 µM (inactive) | 2.99 µM (inactive) | 2.81 µM (inactive) | 5.05 µM (inactive) | 2.05 µM (inactive) | 2.29 µM (inactive) | 1.53 µM (inactive) | 5.46 µM (inactive) | 4.79 µM (inactive) | 11.7 µM (inactive) | 5.56 µM (inactive) | 4.55 µM (inactive) | 3.61 µM (inactive)
COc1cc(C2c3cc4c(cc3[C@H](OCCN(C)C)[C@@H]3COC(=O)C23)OCO4)cc(OC)c1O (stereo not given in full) | 0.0334 µM (active) | 0.0791 µM (active) | 0.485 µM (active) | 0.774 µM (active) | 0.605 | 0.053 µM (active) | 0.621 µM (active) | 2 µM (inactive) | 0.275 µM (active) | 0.155 µM (active) | < 0.01 µM (active) | 0.357 µM (active) | 1.46 µM (inactive) | 0.938 µM (active) | 0.0671 µM (active) | 0.0624 µM (active) | 0.31 µM (active) | 0.307 µM (active) | 0.369 µM (active) | 1.37 µM (inactive)
Cc1ccc(/N=C2N=C(Cl)/C(=C\c3ccccc3)N\2)cc1 | > 100 µM (inactive) | > 37.3 µM (inactive) | > 100 µM (inactive) | 12.2 µM (inactive) | 2.88 | > 100 µM (inactive) | > 100 µM (inactive) | 30.6 µM (inactive) | > 100 µM (inactive) | > 100 µM (inactive) | 78 µM (inactive) | > 100 µM (inactive) | > 100 µM (inactive) | 5.11 µM (inactive) | > 100 µM (inactive) | > 100 µM (inactive) | > 100 µM (inactive) | > 100 µM (inactive) | 88.7 µM (inactive) | > 76.6 µM (inactive)
COC(=O)c1ccc(C)cc1CC1Cc2ccc(C)cc2C1=O (stereo not given) | 11 µM (inactive) | 9.91 µM (inactive) | 8.04 µM (inactive) | 10.1 µM (inactive) | 3.24 | 22 µM (inactive) | 3.47 µM (inactive) | 1.63 µM (inactive) | 5.24 µM (inactive) | 15.7 µM (inactive) | 6.61 µM (inactive) | 1.47 µM (inactive) | 6.17 µM (inactive) | 7.91 µM (inactive) | 5.6 µM (inactive) | 12.2 µM (inactive) | 6.24 µM (inactive) | 5.69 µM (inactive) | 5.55 µM (inactive) | 13.2 µM (inactive)
OCc1ccc2c(c1)CC1(C2)Cc2cc3c(cc2C1)CCC3 | 8.47 µM (inactive) | 2.74 µM (inactive) | 8.04 µM (inactive) | 6.12 µM (inactive) | 2.92 | 4.7 µM (inactive) | 2.22 µM (inactive) | 0.204 µM (active) | 4.71 µM (inactive) | 4.3 µM (inactive) | 3.87 µM (inactive) | 3.52 µM (inactive) | 3.02 µM (inactive) | 2.76 µM (inactive) | 3.57 µM (inactive) | 2.45 µM (inactive) | 4.89 µM (inactive) | 2.26 µM (inactive) | 4.82 µM (inactive) | 7.48 µM (inactive)
C[C@@H]1C(=O)CC2(O)[C@@]13C[C@@H](OC(=O)[C@@H]3O)[C@@H](C)[C@@]21COC1=O (stereo not given in full) | > 100 µM (inactive) | > 100 µM (inactive) | > 100 µM (inactive) | > 100 µM (inactive) | > 100 | > 100 µM (inactive) | > 100 µM (inactive) | > 100 µM (inactive) | > 100 µM (inactive) | > 100 µM (inactive) | > 100 µM (inactive) | > 100 µM (inactive) | > 100 µM (inactive) | > 100 µM (inactive) | > 100 µM (inactive) | > 100 µM (inactive) | > 100 µM (inactive) | > 100 µM (inactive) | > 100 µM (inactive) | > 100 µM (inactive)
O=c1[nH]nc(-c2ccccc2)c2[nH]c3c4ccccc4ccc3c12 | 1.31 µM (inactive) | 1.56 µM (inactive) | 3.44 µM (inactive) | 0.948 µM (active) | 0.643 | 2.77 µM (inactive) | 0.459 µM (active) | 0.193 µM (active) | 4.83 µM (inactive) | 2.15 µM (inactive) | 0.56 µM (active) | 0.753 µM (active) | 0.424 µM (active) | 0.746 µM (active) | 0.964 µM (active) | 3.87 µM (inactive) | 1.62 µM (inactive) | 3.93 µM (inactive) | 5.4 µM (inactive) | 5.82 µM (inactive)
O=c1oc2ccc(Cl)cc2cc1-c1cn2ccsc2n1 | 38.4 µM (inactive) | 25.8 µM (inactive) | 26.6 µM (inactive) | 34.1 µM (inactive) | 36.1 | 46.8 µM (inactive) | 52.8 µM (inactive) | 40.8 µM (inactive) | > 100 µM (inactive) | 51.9 µM (inactive) | 49.9 µM (inactive) | 21 µM (inactive) | 40 µM (inactive) | 41.5 µM (inactive) | 98.4 µM (inactive) | 57 µM (inactive) | 51.9 µM (inactive) | > 100 µM (inactive) | 34.5 µM (inactive) | 95.1 µM (inactive)
CN1C2CCC1CC(=CCOC(c1ccc(F)cc1)c1ccc(F)cc1)C2 | 17.1 µM (inactive) | 37 µM (inactive) | 18.8 µM (inactive) | 4 µM (inactive) | 15.7 | 17.7 µM (inactive) | 5.21 µM (inactive) | 12.8 µM (inactive) | 13.2 µM (inactive) | 17.7 µM (inactive) | 17.2 µM (inactive) | 11.6 µM (inactive) | 17 µM (inactive) | 15.3 µM (inactive) | 16.4 µM (inactive) | 17.3 µM (inactive) | 21.2 µM (inactive) | 13.8 µM (inactive) | 17.6 µM (inactive) | 16.1 µM (inactive)
O=c1cc(-c2ccccc2)oc2ccc(Cl)cc12 [6-CHLOROFLAVONE] | > 100 µM (inactive) | > 77.8 µM (inactive) | 17.4 µM (inactive) | > 56.4 µM (inactive) | > 100 | 44.7 µM (inactive) | > 100 µM (inactive) | > 41.5 µM (inactive) | 56.9 µM (inactive) | 49.9 µM (inactive) | > 100 µM (inactive) | 64.3 µM (inactive) | > 100 µM (inactive) | > 73.5 µM (inactive) | 37.7 µM (inactive) | > 69.8 µM (inactive) | 29.6 µM (inactive) | 26.8 µM (inactive) | 19.6 µM (inactive) | > 54.5 µM (inactive)
